Results on two compounds are retold here after patent EP0943680A1 (priority 1998, dated 1999).

One data set deals with C6 Rat glioma. It counts as cell-based.
Data set [1] deals with U-373 MG Human Glioblastoma. It counts as cell-based. As to conditions: parental U-373 MG.
In another data set the test system is Hs 683 Human Glioma. It counts as cell-based. Conditions: parental Hs 683.
Data set [2] relates to Sk-N-MC Human Neuroblastoma. It counts as cell-based. As to conditions: parental Sk-N-MC.
Data set [3] has as its system FLYA13 Human Amphotropic Packaging Cells. It counts as cell-based. Conditions: parental FLYA13.
The subject of data set [4] is ΨCRIP Murine Amphotropic Packaging Cells. It counts as cell-based. As to conditions: parental ΨCRIP.
Data set [5] has as its system NlH 3T3 Murine Fibroblasts. It counts as cell-based. Conditions: parental 3T3.
Data set [6] concerns Ag 9181 Human Fibroblasts. It counts as cell-based. Conditions: parental Ag 9181.
Data set [7] relates to C6 Rat glioma lin ^+ clones. Put plainly: cells. It counts as cell-based. As to conditions: for IC50: Rattus norvegicus.
The subject of data set [8] is U-373 MG Human Glioblastoma lin ^+ clones. Put plainly: cells. It counts as cell-based. Conditions: U373 MG, U-373 MG lin+.
Data set [9] has as its system Hs 683 Human Glioma lin ^+ clones. Put plainly: cells. It counts as cell-based. As to conditions: Hs 683 lin+.
Data set [10] deals with Sk-N-MC Human Neuroblastoma lin ^+ clones. In words: cells. It counts as cell-based.
Data set [11] has as its system FLYA13 Human Amphotropic Packaging Cells lin ^+ clones. Put plainly: cells. It counts as cell-based.
Data set [12] deals with ΨCRIPlin plus normal C6 cells labeled red with Dil. It counts as cell-based.
The subject of data set [13] is ΨCRIPlin /ΨCRIP red or ΨCRIPlin /3T3 red. It counts as cell-based. Conditions: 100 µg/ml linamarin.
The subject of data set [14] is brain tumor of glioblastoma-C6lin transfected cells. It counts as in vivo, Wistar rats.
Another data set relates to C6, ΨCRIP and 3T3. As to conditions: very high concentrations of linamarin; cells without linamarase gene.
The subject of data set [15] is rat glioblastoma C6 cells brain tumour.
The test system of the next data set is normal rat brains. Conditions: local administration of up to 9 mg of linamarin.
The conditions of data set [16]: all human tissues; 1-20 mM linamarin, pH 6 and 7.4, 37°C.
The conditions of data set [17]: rat kidney only; 1-20 mM linamarin, pH 6 and 7.4, 37°C.
The test system of another data set is adults. As to conditions: human, in vivo.
Data set [18] has as its system ΨCRIP Murine Amphotropic Packaging Cells lin ^+ clones. In words: cells. As to conditions: Mus musculus.
A further data set relates to Female hamsters. Conditions: oral dose of 108 mg of linamarin/kg body weight; cited from earlier work.
The test system of the next data set is animals. Conditions: cited from earlier work.
The conditions of data set [19]: in the absence of linamarase; cited from earlier work.
Data set [20] deals with Neoplastic cells forming a tumor. As to conditions: cited from earlier work.
Setting [21] is: best clone, read-out: IC50 µg/ml Linamarin lin ^+ clones Best clone.
Setting [22] is: mean of at least 4 clones, […], read-out: IC50 µg/ml Linamarin lin ^+ clones Mean value.

Structures are written as SMILES. In brackets after ≈: the same amount, converted by molar mass. Entries after “also recorded” stand apart in the source; their conditions may differ. Read-outs that look alike come from different tables or passages of the source. Marks after values point to notes of the source that are not given here.

With `CC(C)(C#N)O[C@@H]1O[C@H](CO)[C@@H](O)[C@H](O)[C@H]1O` [linamarin, 2-0H-isobutyronitrile-β-D-glucopyranoside], the “% of survival cells with 1 mg/ml Linamarin” value in the data set on C6 Rat glioma (1 mg/ml linamarin, parental C6) is listed as 100^a %; in [1] it was 80%; with Hs 683 Human Glioma, 80%; in [2], 80%; in data set [3], 88^a %; in data set [4] (1 mg/ml linamarin), 85%. For the same compound, the “% of survival cells with 1 mg/ml Linamarin” value in data set [5] is on record as 90^a %; in data set [6] it was 89^a %. Further, the “survival of C6 alone” value in the data set with C6 Rat glioma (10 mg/ml linamarin) is recorded as 86%. Also, in data set [4] (up to 2 mg/ml of linamarin), the cell survival values result is “did not substantially decrease cell survival values”. Moreover, the IC50 is 202 µg/mL (≈ 817 µM) in data set [7] (C6lin clone, pH 6.6, read-out: estimated IC50); 345 µg/mL (≈ 1400 µM) in [7] (C6lin clone, pH 7.4, read-out: estimated IC50); 345 µg/mL in data set [7] (C6 lin+, best clone, read-out: IC50 µg/ml Linamarin lin ^+ clones Best clone); 407 µg/mL in data set [7] (C6 lin+, mean of at least 4 clones, […], read-out: IC50 µg/ml Linamarin lin ^+ clones Mean value); 145 µg/mL in [8] (setting [21]); 236 µg/mL in data set [8] (setting [22]). Moreover, the IC50 was 230 µg/mL in [9] (setting [21]); 288 µg/mL in data set [9] (setting [22]); 183 µg/mL in data set [10] (setting [21]); 215 µg/mL in data set [10] (setting [22]); 77 µg/mL (≈ 311 µM) in data set [11] (FLYA13lin clone, pH 6.6, read-out: estimated IC50); 195 µg/mL (≈ 789 µM) in [11] (FLYA13lin clone, pH 7.4, read-out: estimated IC50). Moreover, the IC50 in [11] (FLYA13 lin+, best clone, read-out: IC50 µg/ml Linamarin lin ^+ clones Best clone) is 195 µg/mL; in data set [11] (FLYA13 lin+, mean of at least 4 clones, […], read-out: IC50 µg/ml Linamarin lin ^+ clones Mean value) it was 382 µg/mL; in data set [18] (read-out: IC50 µg/ml Linamarin lin ^+ clones Best clone), 7 µg/mL; in data set [18] (read-out: IC50 µg/ml Linamarin lin ^+ clones Mean value), 32 µg/mL; in data set [18] (read-out: concentrations that resulted in 50% cytotoxicity (IC50)), 7 to 60 µg/mL (≈ 28.3 to 243 µM). Moreover, the “IC50 of C6lin clones relative to ΨCRIP individual clones” value in data set [7] (in general) is reported as 50 times higher. Also, the “viability of either cell type in the mixture” value in [12] (100 µg/ml linamarin) is “affect only partially the viability”. Besides, in data set [12] (2.5 mg/ml of linamarin), the “fate of both cell types in the mixture” value was “died”. The “fate of the mixtures” value in [13] is “devastated”. In [14] (similar size tumour, only 1 mg of linamarin), the “outcome of the animal” value is “finally died as a consequence of the tumour”. Besides, in [14] (tumour around 70 mm^3, total of 2.4 mg linamarin over 8 days, local infusion, image three weeks after treatment), the “tumour outcome by magnetic resonance imaging” value was “total absence of the tumoral mass; also recorded: eradicated completely”. Besides, in the data set with C6, ΨCRIP and 3T3, the “cyanide detected after linamarin treatment” value is “No cyanide was detected”. Further, the “outcome of the medium size tumour animal” value in data set [15] (rat, in vivo) is “died a month later”. Moreover, in data set [15] (tumours of 220 and 140 mm^3, […]), the “outcome of control animals treated only with the prodrug” value is given as “died shortly afterwards”. In data set [15] (tumours of 1000 mm^3 and 400 mm^3, […]), the “tumour outcome, largest and smallest glioblastomas” value is on record as “total eradication of the tumour”. Further, the “cases developing a recurrence later” value in data set [15] (very large tumors (over 500 mm^3 in size), after up to six months) is on record as “approximately 50%”. For the same compound, the toxicity result in the data set on normal rat brains is recorded as “No apparent toxicity”. Also, the figures for the “linamarase activity (cyanide release from linamarin)” value in [16] and in data set [17] were “negative results for linamarase activity” and “low but detectable levels of cyanide production”, respectively. Moreover, the “equivalent of the lethal cyanide dose” value in the data set with adults lay within 500 to 1000 mg. Further, in the data set with Female hamsters, the “death (cyanide poisoning)” value was 18 % of the animals. For the same compound, the “toxicity compared with oral dosing” value in the data set with animals (administered intraperitoneally) is “practically absent”; with animals (similar doses intravenously), “much lower”. Also, the excretion once absorbed entry in data set [19] was “excreted unchanged in the urine”.
In the case of `N#CO` [sodium cyanate], in data set [20], the “higher sensitivity to the inhibitory effects at decreased extracellular pH” value was ≥ 50%.
